We go through ten molecules from patent US5041552A, “Amino acid derivatives with angiotensin II antagonist properties” (Warner-Lambert Company, priority 1990, dated 1991).

For the test, the target named is T1, angiotensin II receptor (rat liver membranes) (Rattus norvegicus, UniProt P25095).
T1 construct: rat liver membranes; from tissue; host or cells: rat liver membranes
T1 sequence (P25095 1-359): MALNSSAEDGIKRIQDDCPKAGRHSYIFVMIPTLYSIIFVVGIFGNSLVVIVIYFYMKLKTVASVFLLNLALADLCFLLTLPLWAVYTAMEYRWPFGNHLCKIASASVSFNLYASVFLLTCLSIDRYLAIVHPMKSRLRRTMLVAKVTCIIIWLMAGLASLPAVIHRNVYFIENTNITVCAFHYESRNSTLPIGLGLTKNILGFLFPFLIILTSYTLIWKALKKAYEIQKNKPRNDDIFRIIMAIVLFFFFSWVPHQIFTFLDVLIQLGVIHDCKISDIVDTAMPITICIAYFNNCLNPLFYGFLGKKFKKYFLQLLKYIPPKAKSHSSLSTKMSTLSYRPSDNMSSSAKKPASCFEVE
Kind of test: Receptor Binding of Angiotensin II (RBAT): inhibition of tritiated angiotensin II binding to rat liver membranes. Particulars: in vitro, read-out: RBAT IC50 (concentration required to displace 50% of the specifically bound tritiated angiotensin II). The procedure:
The effectiveness of the compounds of the instant invention is determined by a test (RBAT) entitled Receptor Binding of Angiotensin II. In this in vitro test the inhibition of tritiated angiotensin II binding to rat liver membranes is measured.
*The IC50 is a concentration required to displace 50% of the specifi
bound tritiated angiotensin II.
Take `CCCCc1nc(Cl)c(CO)n1Cc1ccc(NC(=O)[C@H](CC(=O)OC(C)(C)C)NC(=O)OCc2ccccc2)cc1` [Example 7]: the IC50 came out at 4 µM.
Turning to `CCSc1nnc(CO)n1Cc1ccc(NC(=O)[C@H](CC(=O)O)NC(=O)OCc2ccccc2)cc1` [Example 9], the IC50 was above 10 µM.
The same measure for `CCCCc1nc(Cl)c(CO)n1Cc1ccc(NC(=O)[C@H](Cc2ccccc2)NS(=O)(=O)c2ccccc2)cc1` [Example 17]: 3.6 µM; for `CCCCc1nc(Cl)c(CO)n1Cc1ccc(NC(=O)[C@H](Cc2ccc(O)cc2)NC(=O)OC(C)(C)C)cc1` [6 (4-Chloro), (S)-[2-[[4-[[2-Butyl-4-chloro-5-(hydroxymethyl)-1H-imidazol-1-yl]methyl]phenyl]amino]-1-[(4-hydroxyphenyl)methyl]-2-oxoethyl]-carbamic acid, 1,1-dimethylethyl ester]: 3 µM.
The same measure for `CCCCc1nc(Cl)c(CO)n1Cc1ccc(NC(=O)C(NC(=O)OC(C)(C)C)C(=O)O)cc1` (racemic) [Example 11]: 6 µM; for `CCCCc1nc(Cl)c(CO)n1Cc1ccc(NC(=O)[C@H](Cc2ccccc2)NS(=O)(=O)N2CCOCC2)cc1` [Example 16]: 2.5 µM; for `CCCCc1ncc(CO)n1Cc1ccc(NC(=O)[C@H](Cc2ccc(O)cc2)NC(=O)OC(C)(C)C)cc1` [Example 6, (S)-[2-[[4-[[2-butyl-5-(hydroxymethyl)-1H-imidazol-1-yl]methyl]phenyl]amino]-1-[(4-hydroxyphenyl)methyl]-2-oxoethyl]-carbamic acid, 1,1-dimethylethylester]: 4.5 µM.
The same measure for `CCCCc1nc(Cl)c(CO)n1Cc1ccc(NC(=O)N2CCC[C@H]2C(=O)OC)cc1` [Example 18, 1-[[4-[[2-Butyl-4-chloro-5-(hydroxymethyl)-1H-imidazol-1-yl]methyl]phenyl]amino]carbonyl-2-pyrrolidinecarboxylic acid, methyl ester]: above 10 µM; for `CCCCc1nc(Cl)c(CO)n1Cc1ccc(NC(=O)C(NC(=O)OCc2ccccc2)C(=O)O)cc1` (racemic) [Example 13, (RS)-3-[[4-[[2-Butyl-4-chloro-5-(hydroxymethyl)-1H-imidazol-1-yl-methyl]phenyl]amino]-3-oxo-2[(phenyl-methoxy)-carbonyl]amino]-propanoic acid]: 10 µM.
As to `CCCCc1nc(Cl)c(CO)n1Cc1ccc(NC(=O)[C@H](CC#N)NC(=O)OCc2ccccc2)cc1` [Example 5, (S)-[2-[[4-[[2-Butyl-4-chloro-5-(hydroxymethyl)-1H-imidazol-1-yl]methyl]phenyl]amino]-1-(cyanomethyl)-2-oxoethyl]-carbamic acid, phenylmethyl ester], the IC50 came out at 3 µM.
